Legend:
[1] = test system: Hepcidin (Hamp) mRNA in mouse primary hepatocytes; assay: Hepcidin mRNA expression in mouse primary hepatocytes by qRT-PCR; type: cell-based; conditions: for hepcidin mRNA increase / hepcidin −ΔΔCt ±SD: primary hepatocytes from Bmp6-deficient mice, 50 ng/ml each, 2 h30
Protocol: (§1) Mouse primary hepatocytes were isolated from ten-week-old Bmp6-deficient mice using a collagenase perfusion protocol (Lin et al., 2007). The viable hepatocyte population was further purified by a Percoll gradient centrifugation. Hepatocytes were plated in 6-well collagen-coated plates at 7×10^5 cells per well and cultured in DMEM supplemented with 10% FCS and antibiotics for 18 hours. After serum starvation for 5 hours in 0.1% FCS, hepatocytes were stimulated with IL-6 (50 ng/ml) and/or activin B (50 ng/ml), or vehicle, in the presence or absence of LDN-193189 (l μM), and RNA was harvested 1, 2, 3, and 4 hours later.
(§2) Total RNA from mouse liver, human hepatoma cells, or mouse primary hepatocytes, was extracted using Trizol (Invitrogen). cDNA was synthesized using MMLV-RT (Promega). Quantitative PCR (Q-PCR) reactions were prepared with LightCycler® 480 DNA SYBR Green I Master reaction mix (Roche Diagnostics) and run in duplicate on a LightCycler® 480 Instrument (Roche Diagnostics).
(§3) Means of −ΔCt (i.e., Ct Hprt−Ct target)±standard deviation (SD) were calculated for the different groups of mice. Means of −ΔCt values between LPS-challenged and unchallenged mice were compared by Student's t-tests. Because, in addition to inflammation, mouse genotype (wild-type versus Bmp6−/−) may also affect mean −ΔCt values, we used two-way analysis of variance (ANOVA) to test for the effect of both factors and their interaction. Differences between mean −ΔCt at a specific time point after LPS administration and mean −ΔCt at time 0 (−ΔΔCt±SD) were also calculated and point estimations of fold changes induced by LPS administration obtained by raising 2 to the power −ΔΔCt (Yuan et al., 2006). For HepG2 cells or mouse primary hepatocytes, −ΔΔCt values (i.e., −ΔCt treatment+ΔCt vehicle)±SD were obtained for each condition and means of −ΔΔCt were compared to 0 by Student's t-tests.

[2] = test system: Hepcidin (Hamp) mRNA in HepG2 cells; assay: Hepcidin mRNA expression in HepG2 cells by qRT-PCR; type: cell-based, human; conditions: for hepcidin mRNA expression increase / hepcidin −ΔΔCt ±SD: HepG2 cells, 50 ng/ml each, peak levels 4 hours after treatment
Protocol: (§4) Human hepatoma cells (HepG2; ATCC) were cultured in high glucose Dulbecco's Modified Eagle Media (DMEM) supplemented with 10% fetal calf serum (FCS) and antibiotics. For stimulation experiments, cells were transferred to 6-well dishes and starved with DMEM containing 0.1% FCS for 5 hours before exposure to IL-6 (50 ng/ml; R&D Systems) and/or activin A (50 ng/ml; R&D) or activin B (50 ng/ml; R&D) for 1 h30, 2 h30, 4 h, 6 h, and 24 h. The pharmacological inhibitor LDN-193189 (100 nM; Axon Medchem), ALK2-Fc (1 μg/mL; R&D), or ALK3-Fc (1 μg/mL; R&D) were added 30 min prior to activin B exposure.
as §2, §3

[3] = test system: Smad1/5/8 phosphorylation in mouse primary hepatocytes; assay: Smad1/5/8 phosphorylation in mouse primary hepatocytes by immunoblot; type: cell-based
Protocol: as §1
(§5) Livers were homogenized in a FastPrep®-24 Instrument (MP Biomedicals) for 15 sec at 4 m/s. The lysis buffer (50 mM Tris-HCl, pH 8, 150 mM NaCl, 5 mM EDTA, pH 8, 0.1% NP-40) included inhibitors of proteases (complete protease inhibitor cocktail, Roche Applied Science) and of phosphatases (phosphatase inhibitor cocktail 2, Sigma-Aldrich). Liver proteins were quantified using the Bio-Rad Protein Assay kit. HepG2 cells and mouse primary hepatocytes were lysed in RIPA buffer (Sigma-Aldrich) supplemented with protease and phosphatase inhibitors, and proteins were quantified using the Bio-Rad DC Protein Assay.
(§6) Fresh protein extracts were diluted in Laemmli buffer (Sigma-Aldrich), incubated for 5 minutes at 95° C., and subjected to SDS-PAGE. […]

[4] = test system: hepcidin expression; conditions: cultured hepatoma-derived cells, zebrafish, mouse, or rat; cited from earlier work
[5] = test system: BMP type I receptors; conditions: 100 nM; cited from earlier work
[6] = test system: SMAD1/5/8 phosphorylation in HepG2 cells; assay: SMAD1/5/8 phosphorylation in HepG2 cells by immunoblot; type: cell-based, human; conditions: 2 h30, 4 or 6 hours; for SMAD1/5/8 phosphorylation: HepG2, 50 ng/ml
Protocol: as §4, §5
Fresh protein extracts were diluted in Laemmli buffer (Sigma-Aldrich), incubated for 5 minutes at 95° C., and subjected to SDS-PAGE. Proteins were then transferred to PVDF membranes (Millipore). Membranes were blocked with 5% of dry milk in TBS-T buffer (10 mM Tris-HCl, pH 7.5, 150 mM NaCl, 0.15% Tween 20). They were incubated with rabbit antibodies to phospho-Smad1/5/8 (Cell Signaling Technology) or phospho-Stat3 (Cell Signaling) at 4° C. overnight, and washed with TBS-T buffer. Following incubation with a goat anti-rabbit IgG antibody (Cell Signaling) conjugated to horseradish peroxidase (HRP), enzyme activity was visualized by an ECL-based detection system (Millipore). Blots were then stripped and reprobed with rabbit antibodies to Smad5 (Epitomics) or Stat3 (Cell Signaling) 2 hours at RT before incubation with the goat anti-rabbit HRP-linked antibody.

[7] = test system: Stat3 signaling in mouse primary hepatocytes; assay: Stat3 signaling in mouse primary hepatocytes by immunoblot; type: cell-based; conditions: 50 ng/ml, 2 h30
Protocol: as §1, §5, §6

[8] = test system: STAT3 phosphorylation in HepG2 cells; assay: STAT3 phosphorylation in HepG2 cells by immunoblot; type: cell-based, human; conditions: HepG2, 50 ng/ml
Protocol: as §4, §5
Fresh protein extracts were diluted in Laemmli buffer (Sigma-Aldrich), incubated for 5 minutes at 95° C., and subjected to SDS-PAGE. Proteins were then transferred to PVDF membranes (Millipore). […]

Compound	hepcidin mRNA increase [1]	hepcidin −ΔΔCt ±SD [1]	hepcidin mRNA expression increase [2]	hepcidin −ΔΔCt ±SD [2]	SMAD1/5/8 phosphorylation [6]	other results
c1ccc2c(-c3cnn4cc(-c5ccc(N6CCNCC6)cc5)cnc34)ccnc2c1 [LDN-193189, reference compound]	–	–	–	–	–	effect on upregulation of Hamp gene expression by activin B ([1]; mouse primary hepatocytes, 1 μM, activin B 50 ng/ml): prevented; effect on induction of hepcidin gene expression by activin B ([2]; HepG2, 100 nM added 30 min before activin B (50 ng/ml), 2 h30, 4 or 6 hours after stimulation): completely abolished; effect on Smad1/5/8 phosphorylation induced by activin B ([3]; 1 μM, activin B 50 ng/ml for 2 h30): prevented induction of Smad1/5/8 phosphorylation; induction of hepcidin expression by IL-6, turpentine, or group A streptococcal peptidoglycan-polysaccharide [4]: blocks induction of hepcidin expression; activity of BMP type I receptors [5]: inhibit activity of BMP type I receptors; effect on Smad1/5/8 phosphorylation induced by activin B ([6]; HepG2, 100 nM added 30 min before activin B (50 ng/ml)): completely abolished
IL-6: interleukin-6 cytokine, R&D Systems	about 1.8 fold	0.82±0.24	about 6 fold	2.63±0.26	–	Stat3 signaling [7]: strong activation of Stat3 signaling; STAT3 phosphorylation [8]: induces STAT3 phosphorylation
activin A	–	–	–	–	not shared with activin A	–
activin B	about 7 fold	2.81±0.92	about 13 fold	3.71±0.46	induces the phosphorylation of the SMAD effectors 1, 5 and 8	SMAD1/5/8 phosphorylation ([3]; 50 ng/ml, 2 h30): induces

Source: patent publication US20150125471A1, “METHOD AND PHARMACEUTICAL COMPOSITION FOR USE IN THE TREATMENT AND DIAGNOTIC OF ANEMIA OF INFLAMMATION” (INSERM (INSTITUT NATIONAL DE LA SANTE ET DE LA RECHERCHE …, priority 2012, published 2015)
